Assay [1] deals with C2C12 Cells. As to the kind of experiment: Oxygen consumption rate (OCR) in C2C12 cells, Seahorse XF-24. The assay is classed as cell-based, mouse. The note with it: 1 hour treatment. The procedure:
Measurement of oxygen consumption rates (OCR). OCR measurements were made using a Seahorse XF-24 analyzer (Seahorse Bioscience). C2C12 Cells were seeded in Seahorse XF-24 cell culture microplates at 30,000 cells per well in DMEM media supplemented with 10% FBS and 10 mM glucose, and incubated at 37° C. and 5% CO2 overnight. Treatment with α-KB or DMSO (vehicle control) was for 1 hour. Cells were washed in unbuffered DMEM medium (pH 7.4, 10 mM glucose) just before measurements, and maintained in this buffer with indicated concentrations of α-KB. OCR was measured three times under basal conditions and normalized to protein concentration per well.

For assay [2], the system named is NADH dehydrogenase. As to the kind of experiment: Electron flow assay, isolated liver mitochondria. In kind it is biochemical, mouse. The procedure:
Animal studies were performed under approved UCLA animal research protocols. Mitochondria from 3-month-old C57BL/6 mice were isolated. Briefly, livers were extracted, minced at 4° C. in MSHE+BSA (70 mM sucrose, 210 mM mannitol, 5 mM HEPES, 1 mM EGTA, and 0.5% fatty acid free BSA, pH 7.2), and rinsed several times to remove blood. All subsequent steps were performed on ice or at 4° C. The tissue was disrupted in 10 volumes of MSHE+BSA with a glass Dounce homogenizer (5-6 strokes) and the homogenate was centrifuged at 800×g for 10 minutes to remove tissue debris and nuclei. The supernatant was decanted through a cell strainer and centrifuged at 8,000×g for 10 minutes. […] Isolated mitochondrial respiration was measured by running coupling and electron flow assays as described. […] After basal readings, the sequential injections were as follows: 2 μM rotenone (Complex I inhibitor), 10 mM succinate (Complex II substrate), 4 μM antimycin A (Complex III inhibitor), and 10 mM/100 μM ascorbate/tetramethylphenylenediamine (Complex IV substrate). […]

Assay [3] deals with T1, Complex II (Mus musculus, UniProt Q8K2B3+Q9CQA3+Q9CXV1+Q9CZB0).
T1 construct: Mitochondria were isolated from mouse liver as described earlier; from tissue; host or cells: liver mitochondria of 3-month-old C57BL/6 mice
T1 sequence (Q8K2B3 43-664): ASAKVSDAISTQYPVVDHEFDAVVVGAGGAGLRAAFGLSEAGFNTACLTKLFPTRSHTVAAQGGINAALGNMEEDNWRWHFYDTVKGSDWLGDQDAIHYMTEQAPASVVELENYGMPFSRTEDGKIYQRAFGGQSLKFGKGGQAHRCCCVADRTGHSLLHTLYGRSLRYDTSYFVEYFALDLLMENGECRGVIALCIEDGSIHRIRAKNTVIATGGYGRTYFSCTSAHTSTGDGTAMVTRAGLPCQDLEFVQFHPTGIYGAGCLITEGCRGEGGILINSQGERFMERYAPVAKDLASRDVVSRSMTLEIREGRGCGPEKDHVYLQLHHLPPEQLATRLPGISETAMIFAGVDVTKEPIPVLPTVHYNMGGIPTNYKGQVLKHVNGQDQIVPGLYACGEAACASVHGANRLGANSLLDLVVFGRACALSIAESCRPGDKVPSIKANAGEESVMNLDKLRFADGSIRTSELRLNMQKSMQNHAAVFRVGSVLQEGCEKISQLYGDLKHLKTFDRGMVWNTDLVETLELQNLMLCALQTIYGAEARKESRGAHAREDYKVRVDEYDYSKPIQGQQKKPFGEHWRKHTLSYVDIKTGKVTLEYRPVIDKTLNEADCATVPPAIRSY
T1 sequence (Q9CQA3 31-282): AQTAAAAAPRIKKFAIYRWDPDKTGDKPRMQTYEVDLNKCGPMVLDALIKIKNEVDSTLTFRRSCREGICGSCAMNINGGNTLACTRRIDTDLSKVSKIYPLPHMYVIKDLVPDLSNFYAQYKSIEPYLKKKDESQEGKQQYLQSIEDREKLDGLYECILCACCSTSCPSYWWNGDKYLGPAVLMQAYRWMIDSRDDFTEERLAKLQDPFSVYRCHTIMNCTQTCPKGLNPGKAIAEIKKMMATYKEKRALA
T1 sequence (Q9CZB0 30-169): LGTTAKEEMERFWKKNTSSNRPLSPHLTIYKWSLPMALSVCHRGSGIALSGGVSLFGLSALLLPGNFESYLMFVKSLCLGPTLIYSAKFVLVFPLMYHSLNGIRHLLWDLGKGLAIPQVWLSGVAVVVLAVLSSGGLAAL
T1 sequence (Q9CXV1 57-159): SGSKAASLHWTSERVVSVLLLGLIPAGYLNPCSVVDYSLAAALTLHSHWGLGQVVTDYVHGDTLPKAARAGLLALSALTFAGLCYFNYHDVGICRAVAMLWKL
As to the kind of experiment: Complex II driven coupling assay, isolated liver mitochondria (succinate and rotenone). Particulars: succinate supplemented. The assay is classed as biochemical. The method, then: Animal studies were performed under approved UCLA animal research protocols. Mitochondria from 3-month-old C57BL/6 mice were isolated. Briefly, livers were extracted, minced at 4° C. in MSHE+BSA (70 mM sucrose, 210 mM mannitol, 5 mM HEPES, 1 mM EGTA, and 0.5% fatty acid free BSA, pH 7.2), and rinsed several times to remove blood. All subsequent steps were performed on ice or at 4° C. The tissue was disrupted in 10 volumes of MSHE+BSA with a glass Dounce homogenizer (5-6 strokes) and the homogenate was centrifuged at 800×g for 10 minutes to remove tissue debris and nuclei. The supernatant was decanted through a cell strainer and centrifuged at 8,000×g for 10 minutes. The dark mitochondrial pellet was resuspended in MSHE+BSA and re-centrifuged at 8,000×g for 10 minutes. The final mitochondrial pellet was resuspended in 30 μl of MAS buffer (70 mM sucrose, 220 mM mannitol, 10 mM KH2PO4, 5 mM MgCl2, 2 mM HEPES, 1 mM EGTA, and 0.2% fatty acid free BSA, pH 7.2). Isolated mitochondrial respiration was measured by running coupling and electron flow assays as described. […]
Mitochondrial respiration was measured by running coupling and electron flow assays. […]

SMILES strings stand for the structures.

Turning to `C[C@@H](O)CC(=O)O` [3-HB, (R)-3-hydroxybutyrate, reference compound], in assay [1], the basal respiration result was “does not have any effect” and the “maximal respiration (mitochondrial respiration upon FCCP treatment)” value is on record as “does not have any effect”. The “respiration in electron flow assay” value in assay [2] is recorded as “does not affect”. The “mitochondrial respiration, Complex II-driven coupling” value in assay [3] is listed as “does not affect”.

For the origin of these results see US10729668B2, “Ketobutyrate compounds and compositions for treating age-related symptoms and diseases” (The Regents of the University of California, priority 2014, dated 2020).
